Where a name gives a salt, the structure may show the parent alone.
Key:
interferon (α) = test: Cytokine Induction in Human Cells: interferon (α) by ELISA; type: cell-based; conditions: PBMC; human PBMCs, incubated 18 to 24 hours, lowest concentration found to induce interferon
Description: (§1) An in vitro human blood cell system was used to assess cytokine induction by compounds of the invention. Activity is based on the measurement of interferon and tumor necrosis factor (α) (IFN and TNF, respectively) secreted into culture media as described by Testerman et. al. In “Cytokine Induction by the Immunomodulators Imiquimod and S-27609”, Journal of Leukocyte Biology, 58, 365–372 (September, 1995).
(§2) Whole blood is collected by venipuncture into EDTA vacutainer tubes from healthy human donors. Peripheral blood mononuclear cells (PBMCs) are separated from whole blood by density gradient centrifugation using Histopaque®-1077 (Sigma Chemicals, St. Louis, Mo.). The PBMCs are suspended at 3–4×10^6 cells/mL in RPMI 1640 medium containing 10% fetal bovine serum, 2 mM L-glutamine and 1% penicillin/streptomycin solution (RPMI complete). The PBMC suspension is added to 48 well flat bottom sterile tissue culture plates (Costar, Cambridge, Mass. or Becton Dickinson Labware, Lincoln Park, N.J.) containing an equal volume of RPMI complete media containing test compound.
(§3) The compounds are solubilized in dimethyl sulfoxide (DMSO). The DMSO concentration should not exceed a final concentration of 1% for addition to the culture wells.
(§4) The solution of test compound is added at 60 μM to the first well containing RPMI complete and serial (three fold or ten fold) dilutions are made. The PBMC suspension is then added to the wells in an equal volume, bringing the test compound concentrations to the desired range. The final concentration of PBMC suspension is 1.5–2×10^6 cells/mL. The plates are covered with sterile plastic lids, mixed gently and then incubated for 18 to 24 hours at 37° C. in a 5% carbon dioxide atmosphere.
(§5) Following incubation the plates are centrifuged for 5–10 minutes at 1000 rpm (˜200×g) at 4° C. The cell culture supernatant is removed with a sterile polypropylene pipet and transferred to sterile polypropylene tubes. Samples are maintained at −30 to −70° C. until analysis. The samples are analyzed for interferon (α) and tumor necrosis factor (α) by ELISA
Interferon (α) concentration is determined by ELISA using a Human Multi-Species kit from PBL Biomedical Laboratories, New Brunswick, N.J.
(§6) The table below lists the lowest concentration found to induce interferon and the lowest concentration found to induce tumor necrosis factor for each compound.

[1] = tested on: tumor necrosis factor (α); test: Cytokine Induction in Human Cells: tumor necrosis factor (α) by ELISA; type: cell-based; conditions: PBMC; human PBMCs, incubated 18 to 24 hours, lowest concentration found to induce tumor necrosis factor
Description: as §1, §2, §3, §4, §5
Tumor necrosis factor (α) (TNF) concentration is determined using ELISA kits available from Genzyme, Cambridge, Mass.; R&D Systems, Minneapolis, Minn.; or Pharmingen, San Diego, Calif.
as §6

Row | melting point | Compound | minimal effective concentration (interferon (α)) | minimal effective concentration [1]
1 | 154 to 155 °C | Nc1nc2ccccc2c2c1ncn2CCCCNC(=O)Oc1ccc2ccccc2c1 | – | –
2 | 89 to 92 °C | Nc1nc2ccccc2c2c1ncn2CCCCNC(=O)Oc1cccc2ccccc12 | – | –
3 | 126.8 to 127.5 °C | CCCCCc1nc2c(N)nc3c(c2n1CCCCNC(=O)N1CCOCC1)CCCC3 (as salt: hydrochloride) [Example 172, N-[4-(4-amino-2-pentyl-6,7,8,9-tetrahydro-1H-imidazo[4,5-c]quinolin-1-yl)butyl]morpholine-4-carboxamide hydrochloride] | – | –
4 | 215 °C | CC(C)(C)OC(=O)NCCn1cnc2c(N)nc3ccccc3c21 [Example 1, Tert-Butyl N-[2-(4-Amino-1H-imidazo[4,5-c]quinolin-1-yl)ethyl]carbamate] | 3.33 µM | 30 µM
5 | 171 to 173 °C | CC(C)(C)OC(=O)NCCCCn1cnc2c(N)nc3ccccc3c21 [Example 2] | 0.37 µM | 3.33 µM
6 | 177 to 179.5 °C | Nc1nc2ccccc2c2c1ncn2CCCCNC(=O)N1CCOCC1 [Example 5, N^4-[4-(4-Amino-1H-imidazo[4,5-c]quinolin-1-yl)butyl]-4-morpholinecarboxamide] | 3.33 µM | > 30 µM
7 | 87 to 88 °C | CN(C(=O)NCCCCn1cnc2c(N)nc3ccccc3c21)c1ccccc1 [Example 6, N^1-[4-(4-Amino-1H-imidazo[4,5-c]quinolin-1-yl)butyl]-N-methyl-N-phenylurea] | 0.37 µM | > 30 µM
8 | 196 °C (dec.) | COc1ccc(Cc2nc3c(N)nc4ccccc4c3n2CCCCNC(N)=O)cc1 [Example 10, N-{4-[4-Amino-2-(4-methoxybenzyl)-1H-imidazo[4,5-c]quinolin-1-yl]butyl}urea] | – | –
9 | 182 to 183 °C | CC(C)(C)OC(=O)NCCCCn1c(-c2ccccc2)nc2c(N)nc3ccccc3c21 [Example 12, tert-Butyl N-[4-(4-Amino-2-phenyl-1H-imidazo[4,5-c]quinolin-1-1)butyl]carbamate] | – | –
10 | 113 to 116 °C | CCCNC(=S)NCCCCn1c(-c2ccccc2)nc2c(N)nc3ccccc3c21 [Example 13, N-[4-(4-Amino-2-phenyl-1H-imidazo[4,5-c]quinolin-1-yl)butyl]-N′-propylthiourea] | – | –
11 | 118 to 120 °C | Nc1nc2ccccc2c2c1nc(-c1ccccc1)n2CCCCNC(=S)Nc1cccnc1 [Example 14, N-[4-(4-Amino-2-phenyl-1H-imidazo[4,5-c]quinolin-1-yl)butyl]-N′-(3-pyridyl)thiourea] | – | –
12 | 145 to 150 °C | Nc1nc2ccccc2c2c1nc(-c1ccccc1)n2CCCCNC(=O)Nc1ccc(F)cc1 [Example 15, N-[4-(4-amino-2-phenyl-1H-imidazo[4,5-c]quinolin-1-yl)butyl]-N′-(4-fluorophenyl)urea] | – | –
13 | – | COCCc1nc2c(N)nc3ccccc3c2n1CCCCNC(=S)Nc1ccc(N(C)C)c2ccccc12 [Example 126] | 0.0001 µM | 1 µM
14 | – | CCCNC(=S)NCCCCn1c(CCOC)nc2c(N)nc3ccccc3c21 [Example 127] | 0.0001 µM | 1 µM
15 | – | CCCCc1nc2c(N)nc3c(c2n1CCCCNC(=O)NC12CC4CC(CC(C4)C1)C2)CCCC3 [Example 132] | 0.01 µM | 1 µM
16 | – | CCCCc1nc2c(N)nc3c(c2n1CCCCNC(=O)NCc1ccccc1)CCCC3 [Example 133] | 0.1 µM | 10 µM
17 | – | COCCc1nc2c(N)nc3c(c2n1CCCCNC(=O)N(C)C)CCCC3 [Example 134] | 0.001 µM | 1 µM

Row | melting point | Compound | minimal effective concentration (interferon (α)) | minimal effective concentration [1]
18 | – | COCCc1nc2c(N)nc3c(c2n1CCCCNC(=O)N1CCOCC1)CCCC3 [Example 135] | 0.01 µM | 10 µM
19 | – | COCCc1nc2c(N)nc3c(c2n1CCCCNC(=O)Nc1ccccc1)CCCC3 [Example 136] | 0.0001 µM | 1 µM
20 | – | CCCCc1nc2c(N)nc3c(c2n1CCCCNC(=O)NS(=O)(=O)c1ccccc1)CCCC3 [Example 137] | 1 µM | 10 µM
21 | – | CCCCc1nc2c(N)nc3ccccc3c2n1CCNC(=O)NS(=O)(=O)c1ccc(F)cc1 [Example 139] | > 10 µM | > 10 µM
22 | – | CCCCc1nc2c(N)nc3ccccc3c2n1CCNC(=O)NS(=O)(=O)c1ccc(Cl)cc1 [Example 140] | 10 µM | > 10 µM
23 | – | COCCc1nc2c(N)nc3ccccc3c2n1CCCCNC(=O)NC(=O)c1ccccc1 [Example 141, N^1-{4-[4-Amino-2-(2-methoxyethyl)-1H-imidazo[4,5-c]quinolin-1-yl]butyl}-N^3-benzoylurea Trifluoroacetate] | > 10 µM | 10 µM
24 | – | COCCc1nc2c(N)nc3ccccc3c2n1CCCCNC(=O)OCc1ccccc1 [Example 142, N-{4-[4-Amino-2-(2-methoxyethyl)-1H-imidazo[4,5-c]quinolin-1-yl]butyl}carbamate Trifluoroacetate] | 0.0001 µM | 0.1 µM
25 | 179.7 to 181.4 °C | CCc1nc2c(N)nc3ccccc3c2n1CCCCNC(=O)Nc1ccccc1 [Example 143, N-[4-(4-amino-2-ethyl-1H-imidazo[4,5-c]quinolin-1-yl)butyl]-N′-phenylurea] | 0.01 µM | 0.37 µM
26 | – | COCCc1nc2c(N)nc3ccccc3c2n1CCCCCCCCNC(=O)Nc1ccccc1 [Example 145, N-{8-[4-amino-2-(2-methoxyethyl)-1H-imidazo[4,5-c]quinolin-1-yl]octyl}-N′-phenylurea] | 0.01 µM | 0.04 µM
27 | – | CCCCc1nc2c(N)nc3ccccc3c2n1CCCNC(=O)Nc1ccccc1 [Example 146, N-[3-(4-amino-2-butyl-1H-imidazo[4,5-c]quinolin-1-yl)propyl]-N′-phenylurea] | 0.01 µM | 0.12 µM
28 | – | CCCCc1nc2c(N)nc3ccccc3c2n1CCCNC(=O)OC(C)(C)C [Example 147, tert-butyl 3-(4-amino-2-butiyl-1H-imidazo[4,5-c]quinolin-1-yl)propylcarbamate] | 0.01 µM | 0.12 µM
29 | – | COCCc1nc2c(N)nc3ccccc3c2n1CCCNC(=O)Nc1ccccc1 [Example 161, N-{3-[4-amino-2-(2-methoxyethyl)-1H-imidazo[4,5-c]quinolin-1-yl]propyl}-N′-phenylurea] | 0.01 µM | 0.01 µM
30 | 198.8 to 199.9 °C | Nc1nc2ccccc2c2c1nc(CCCOc1ccccc1)n2CCCNC(=O)N1CCOCC1 [Example 166, N-{3-[4-amino-2-(3-phenoxypropyl)-1H-imidazo[4,5-c]quinolin-1-yl]propyl}morpholine-4-carboxamide] | – | –
31 | 226 to 228 °C | Cc1nc2c(N)nc3ccccc3c2n1CCCNC(=O)N1CCOCC1 [Example 167, N-[3-(4-amino-2-methyl-1H-imidazo[4,5-c]quinolin-1-yl)propyl]morpholine-4-carboxamide] | – | –
32 | 171.8 to 173.2 °C | COCCc1nc2c(N)nc3c(c2n1CCCNC(=O)N1CCOCC1)CCCC3 [Example 168, N-{3-[4-amino-2-(2-methoxyethyl)-6,7,8,9-tetrahydro-1H-imidazo[4,5-c]quinolin-1-yl]propyl}morpholine-4-carboxamide] | – | –
33 | – | COCCc1nc2c(N)nc3ccccc3c2n1CC(C)(C)CNC(=O)Nc1ccccc1 [Example 169, N-{3-[4-amino-2-(2-methoxyethyl)-1H-imidazo[4,5-c]quinolin-1-yl]-2,2-dimethylpropyl}-N′-phenylurea] | 0.01 µM | 0.01 µM
34 | – | CCCCCc1nc2c(N)nc3c(c2n1CCCCNC(=O)N1CCOCC1)CCCC3 [Example 172, N-[4-(4-amino-2-pentyl-6,7,8,9-tetrahydro-1H-imidazo[4,5-c]quinolin-1-yl)butyl]morpholine-4-carboxamide hydrochloride] | 0.01 µM | 0.37 µM

— patent US7157453B2, “Urea substituted imidazoquinolines” (3M Innovation Properties Company, priority 1999, dated 2007)
